Test results: US20170050957A1, “4-AMINO-6-(HETEROCYCLIC)PICOLINATES AND 6-AMINO-2-(HETEROCYCLIC)PYRIMIDINE-4-CARBOXYLATES AND THEIR USE AS HERBICIDES” (Dow AgroSciences LLC, priority 2013, published 2017)

Test system: Wheat and Barley and test plant species
Test: Post-emergent Test III, herbicidal activity in wheat and barley (Table 17; visual injury, GR20/GR50/GR80/GR90)
Format: in vivo
Conditions: 21 d; for Visual Growth Reduction (%) 21 Days After Application, CIRAR / Visual Growth Reduction (%) 21 Days After Application, GALAP / Visual Growth Reduction (%) 21 Days After Application, HORVS / Visual Growth Reduction (%) 21 Days After Application, KCHSC / Visual Growth Reduction (%) 21 Days After Application, LAMPU / Visual Growth Reduction (%) 21 Days After Application, MATCH / Visual Growth Reduction (%) 21 Days After Application, PAPRH / Visual Growth Reduction (%) 21 Days After Application, SASKR / Visual Growth Reduction (%) 21 Days After Application, SINAR / Visual Growth Reduction (%) 21 Days After Application, TRZAS / Visual Growth Reduction (%) 21 Days After Application, VERPE / Visual Growth Reduction (%) 21 Days After Application, VIOTR: post-emergent
How it was run: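 Greenhouse-grown plants at second to third true leaf stage (about 18/17° C day/night, 14 h photoperiod) sprayed post-emergence with compound in acetone/DMSO/water-based mix with Agri-Dex crop oil and X-77 surfactant at 187 L/ha, at highest rate and 1/2× to 1/16× dilutions. Visual injury scored 0–100% versus untreated plants after 21 d; GR20/GR50/GR80/GR90 from probit analysis.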

`COC(=O)c1nc(-c2ccc3cc[nH]c3c2F)cc(N)c1Cl` [Compound 1.23, Methyl 4-amino-3-chloro-6-(7-fluoro-1H-indol-6-yl)picolinate] was tested, and the “Visual Growth Reduction (%) 21 Days After Application, CIRAR” value (CIRAR, 17.5 g ai/ha) was “G (0-29)”, the “Visual Growth Reduction (%) 21 Days After Application, CIRAR” value (CIRAR, 35 g ai/ha) was “G (0-29)” and the “Visual Growth Reduction (%) 21 Days After Application, CIRAR” value (CIRAR, 70 g ai/ha) was “G (0-29)”. The “GR50, CIRAR” value (CIRAR, dose for 50 percent growth reduction, probit analysis) was >140 g ai/ha, the “GR80, CIRAR” value (CIRAR, dose for 80 percent growth reduction, probit analysis) was >140 g ai/ha and the “GR90, CIRAR” value (CIRAR, dose for 90 percent growth reduction, probit analysis) was >140 g ai/ha. The “Visual Growth Reduction (%) 21 Days After Application, GALAP” value (GALAP, 17.5 g ai/ha) was “A (95-100)”, the “Visual Growth Reduction (%) 21 Days After Application, GALAP” value (GALAP, 35 g ai/ha) was “A (95-100)” and the “Visual Growth Reduction (%) 21 Days After Application, GALAP” value (GALAP, 70 g ai/ha) was “A (95-100)”. The “GR50, GALAP” value (GALAP, dose for 50 percent growth reduction, probit analysis) was 1 g ai/ha, the “GR80, GALAP” value (GALAP, dose for 80 percent growth reduction, probit analysis) was 4 g ai/ha and the “GR90, GALAP” value (GALAP, dose for 90 percent growth reduction, probit analysis) was 7 g ai/ha. For the same compound, the “Visual Growth Reduction (%) 21 Days After Application, HORVS” value (HORVS, 17.5 g ai/ha) was “G (0-29)”, the “Visual Growth Reduction (%) 21 Days After Application, HORVS” value (HORVS, 35 g ai/ha) was “G (0-29)” and the “Visual Growth Reduction (%) 21 Days After Application, HORVS” value (HORVS, 70 g ai/ha) was “G (0-29)”. For the same compound, the “GR20, HORVS” value (HORVS, dose for 20 percent growth reduction, probit analysis) was >140 g ai/ha, the “Visual Growth Reduction (%) 21 Days After Application, KCHSC” value (KCHSC, 17.5 g ai/ha) was “F (30-44)” and the “Visual Growth Reduction (%) 21 Days After Application, KCHSC” value (KCHSC, 35 g ai/ha) was “E (45-59)”. For the same compound, the “Visual Growth Reduction (%) 21 Days After Application, KCHSC” value (KCHSC, 70 g ai/ha) was “D (60-74)”, the “GR50, KCHSC” value (KCHSC, dose for 50 percent growth reduction, probit analysis) was 35 g ai/ha and the “GR80, KCHSC” value (KCHSC, dose for 80 percent growth reduction, probit analysis) was 110 g ai/ha. The “GR90, KCHSC” value (KCHSC, dose for 90 percent growth reduction, probit analysis) was >140 g ai/ha, the “Visual Growth Reduction (%) 21 Days After Application, LAMPU” value (LAMPU, 17.5 g ai/ha) was “B (85-94)” and the “Visual Growth Reduction (%) 21 Days After Application, LAMPU” value (LAMPU, 35 g ai/ha) was “A (95-100)”. For the same compound, the “Visual Growth Reduction (%) 21 Days After Application, LAMPU” value (LAMPU, 70 g ai/ha) was “A (95-100)”, the “GR50, LAMPU” value (LAMPU, dose for 50 percent growth reduction, probit analysis) was 3 g ai/ha and the “GR80, LAMPU” value (LAMPU, dose for 80 percent growth reduction, probit analysis) was 6 g ai/ha. For the same compound, the “GR90, LAMPU” value (LAMPU, dose for 90 percent growth reduction, probit analysis) was 9 g ai/ha, the “Visual Growth Reduction (%) 21 Days After Application, MATCH” value (17.5 g ai/ha) was “G (0-29)” and the “Visual Growth Reduction (%) 21 Days After Application, MATCH” value (35 g ai/ha) was “G (0-29)”. For the same compound, the “Visual Growth Reduction (%) 21 Days After Application, MATCH” value (70 g ai/ha) was “G (0-29)”, the “Visual Growth Reduction (%) 21 Days After Application, PAPRH” value (PAPRH, 17.5 g ai/ha) was “D (60-74)” and the “Visual Growth Reduction (%) 21 Days After Application, PAPRH” value (PAPRH, 35 g ai/ha) was “A (95-100)”. For the same compound, the “Visual Growth Reduction (%) 21 Days After Application, PAPRH” value (PAPRH, 70 g ai/ha) was “A (95-100)”, the “GR50, PAPRH” value (PAPRH, dose for 50 percent growth reduction, probit analysis) was 11 g ai/ha and the “GR80, PAPRH” value (PAPRH, dose for 80 percent growth reduction, probit analysis) was 17 g ai/ha. For the same compound, the “GR90, PAPRH” value (PAPRH, dose for 90 percent growth reduction, probit analysis) was 22 g ai/ha, the “Visual Growth Reduction (%) 21 Days After Application, SASKR” value (SASKR, 17.5 g ai/ha) was “F (30-44)” and the “Visual Growth Reduction (%) 21 Days After Application, SASKR” value (SASKR, 35 g ai/ha) was “E (45-59)”. The “Visual Growth Reduction (%) 21 Days After Application, SASKR” value (SASKR, 70 g ai/ha) was “C (75-84)”, the “GR50, SASKR” value (SASKR, dose for 50 percent growth reduction, probit analysis) was 29 g ai/ha and the “GR80, SASKR” value (SASKR, dose for 80 percent growth reduction, probit analysis) was 90 g ai/ha. For the same compound, the “GR90, SASKR” value (SASKR, dose for 90 percent growth reduction, probit analysis) was >140 g ai/ha, the “Visual Growth Reduction (%) 21 Days After Application, SINAR” value (SINAR, 17.5 g ai/ha) was “C (75-84)” and the “Visual Growth Reduction (%) 21 Days After Application, SINAR” value (SINAR, 35 g ai/ha) was “C (75-84)”. The “Visual Growth Reduction (%) 21 Days After Application, SINAR” value (SINAR, 70 g ai/ha) was “A (95-100)”, the “GR50, SINAR” value (SINAR, dose for 50 percent growth reduction, probit analysis) was 3 g ai/ha and the “GR80, SINAR” value (SINAR, dose for 80 percent growth reduction, probit analysis) was 14 g ai/ha. The “GR90, SINAR” value (SINAR, dose for 90 percent growth reduction, probit analysis) was 32 g ai/ha, the “Visual Growth Reduction (%) 21 Days After Application, TRZAS” value (TRZAS, 17.5 g ai/ha) was “G (0-29)” and the “Visual Growth Reduction (%) 21 Days After Application, TRZAS” value (TRZAS, 35 g ai/ha) was “G (0-29)”. For the same compound, the “Visual Growth Reduction (%) 21 Days After Application, TRZAS” value (TRZAS, 70 g ai/ha) was “G (0-29)”, the “GR20, TRZAS” value (TRZAS, dose for 20 percent growth reduction, probit analysis) was 66 g ai/ha and the “Visual Growth Reduction (%) 21 Days After Application, VERPE” value (VERPE, 17.5 g ai/ha) was “B (85-94)”. The “Visual Growth Reduction (%) 21 Days After Application, VERPE” value (VERPE, 35 g ai/ha) was “B (85-94)”, the “Visual Growth Reduction (%) 21 Days After Application, VERPE” value (VERPE, 70 g ai/ha) was “A (95-100)” and the “GR50, VERPE” value (VERPE, dose for 50 percent growth reduction, probit analysis) was 1 g ai/ha. For the same compound, the “GR80, VERPE” value (VERPE, dose for 80 percent growth reduction, probit analysis) was 8 g ai/ha, the “GR90, VERPE” value (VERPE, dose for 90 percent growth reduction, probit analysis) was 21 g ai/ha and the “Visual Growth Reduction (%) 21 Days After Application, VIOTR” value (VIOTR, 17.5 g ai/ha) was “G (0-29)”. The “Visual Growth Reduction (%) 21 Days After Application, VIOTR” value (VIOTR, 35 g ai/ha) was “E (45-59)”, the “Visual Growth Reduction (%) 21 Days After Application, VIOTR” value (VIOTR, 70 g ai/ha) was “D (60-74)” and the “GR50, VIOTR” value (VIOTR, dose for 50 percent growth reduction, probit analysis) was 44 g ai/ha. The “GR80, VIOTR” value (VIOTR, dose for 80 percent growth reduction, probit analysis) was 119 g ai/ha and the “GR90, VIOTR” value (VIOTR, dose for 90 percent growth reduction, probit analysis) was >140 g ai/ha.
